Data reported in US10993959B2, “Methods and compositions for increasing the suppressive function of regulatory T-cells (Tregs)” (Regents of the University of Minnesota, priority 2015, dated 2021).
Entries after “also recorded” stand apart in the source; their conditions may differ.

Experiments:
acute GVHD = experiment: mouse MHC class I/II disparate acute GVHD model; format: in vivo
Protocol: (§1) Lethally irradiated BALB/c mice were given 10e6 C57BL/6 bone marrow only (BM), or BM with 2e6 CD4+25−/CD8+25− Tcon cells without (BM+T) or with 1e6 Tregs treated with either DMSO (DMSO) or 10 μM AEB071 (AEB071) for 30 minutes. […] Tregs were treated with DMSO or AEB071 as above, and activated overnight with plate bound anti-CD3/28 and IL-2. […] […] Tregs were treated with DMSO or AEB071 and activated as above. […] Tregs were transfected with vimentin siRNA (vim) or control (GFP), and activated for 36 hours. CFSE-labeled Tcon were mixed with T-cell depleted splenocytes and soluble anti-CD3 mAb. Treg:Tcon ratios of 1:1-1:27 were plated and CFSE dilution assessed after 3 days.
(§2) FIG. 9A is a graph showing the percent survival of recipients. Tregs were transfected with either control (non-targeting) or vimentin siRNA. Recipient mice were given BM alone, BM+Tcon (BM+T), or BM+Tcon+Tregs; Tregs pre-treated with control or vimentin siRNA. […] Bars show mean±SEM. Survival differences analyzed by log-rank test. *, p<0.05; **, P<0.01; ***, P<0.0001; ****, p<0.00001 (Student's t-tests or one-way ANOVA with Tukey's post-test).
as §2, with “9B” for “9A”, “clinical GVHD scores (0=no disease, 10=most severe disease) for” for “percent survival of”
As Tregs exert much of their protective effect against GVHD early in the course of the disease, proliferation of GVHD-causing conventional T-cells (Tcon) on D4 after transplant was analyzed. […] Multi-photon microscopy on D4 was performed after transplant using TEα-GFP Tcon, CD11c-eYFP antigen presenting cells (APCs) and wild-type Tregs. […]

Tcon-APC interactions = experiment: multi-photon microscopy on D4 after transplant; format: in vivo, mouse; details: AEB071-treated Tregs vs DMSO
Protocol: As Tregs exert much of their protective effect against GVHD early in the course of the disease, proliferation of GVHD-causing conventional T-cells (Tcon) on D4 after transplant was analyzed. […] Multi-photon microscopy on D4 was performed after transplant using TEα-GFP Tcon, CD11c-eYFP antigen presenting cells (APCs) and wild-type Tregs.

Tregs [1] = experiment: flow cytometry of marker expression in activated Tregs; format: cell-based, mouse
Protocol: as §1
Bars show mean±SEM. *, p<0.05; **, P<0.01; ***, P<0.0001; ****, p<0.00001 (Student's t-tests or one-way ANOVA with Tukey's post-test).
Ratios of 0:1, 1:1, 1:3, 1:9 and 1:27 Treg:Teff were made. Four replicates of each ratio were made and plated in a 96-well, round bottom plate. After 3 days in culture, the cells from each well were harvested, washed with PBS and then stained with antibodies for flow cytometry analysis of CFSE dilution (proliferation) of CD4 and CD8 Tcon. The antibodies used were as follows: CD4-BV510, CD8-PE-ef610, CD25-BV605, Nrp1-PerCP-ef710, Lag3-APC, Fixable viability dye-APC-ef780, Foxp3-PE-Cy7, and Vimentin-PE.

splenic Tregs = experiment: flow cytometry of Tregs from acute GVHD recipients; format: in vivo, mouse; details: AEB071 vs DMSO treated Tregs isolated from acute GVHD mice
[2] = test system: phosphorylated proteins in activated Tregs; experiment: flow cytometry analysis of phosphorylated proteins (phosphoflow) in Tregs; format: cell-based, mouse
Protocol: In addition, the mTORC2-specific phosphorylation site on Akt, serine 473, was reduced, whereas the […] phosphorylation site, threonine 308, was unaltered. […] As both mTORC1 and mTORC2 are involved in T-cell metabolism, the effect of AEB071 treatment on Treg oxygen consumption rate (OCR) was investigated. […] Increased OCR has been associated with increased Treg function. […]
Since PKC-θ inhibition modulated Treg metabolism and mTORC2 function, experiments were performed to determine whether vimentin siRNA might have a similar effect. […] Since mTORC2 signaling was reduced after PKC-θ inhibition, it was hypothesized that mTORC2 activity also could be reduced after treatment with vimentin siRNA.

Tregs [3] = experiment: Treg metabolic activity (OCR, ECAR, BoDipyC1-C12 uptake); format: cell-based, mouse; details: AEB071 vs DMSO, after activation
Protocol: as §1
FIG. 9C is a graph showing basal and maximal oxygen consumption rate (OCR) and extracellular acidification rate (ECAR) measured after transfection. Tregs were transfected with either control (non-targeting) or vimentin siRNA. […] Bars show mean±SEM. Survival differences analyzed by log-rank test. *, p<0.05; **, P<0.01; ***, P<0.0001; ****, p<0.00001 (Student's t-tests or one-way ANOVA with Tukey's post-test).

Tcon = experiment: in vitro Treg suppression, Tcon type not specified; format: cell-based, mouse
Protocol: as §1
On day 3 after transfection, CD4/8 Tcon and T-cell depleted splenoctyes were isolated for a suppression assay. CD4/CD8 Tcon were purified from spleen of CD45.1 C57BL/6 mice using negative selection with eBioscience biotinylated Ab (anti-CD19, B220, NK1.1, gamma-delta TCR) and StemCell technologies streptavidin RapidSphere technology. Once isolated, Tcon were labeled with CFSE (2.5 μM) for 5 minutes at room temperature with constant agitation.
Responder Tcon were provided with 0.75 μg/mL soluble anti-CD3 mAb. […]

[4] = test system: in vitro-expanded human Tregs; experiment: phosphoproteomic screen with human Treg cells; format: cell-based
Protocol: Utilizing mass spectroscopy, a total of 12,452 phosphorylation sites were quantified from human Tregs. In order to determine significant differences between DMSO-treated and AEB071-treated Tregs, two experiments were performed concurrently: • Forward experiment: This experiment utilized heavy isotope-labeled Tregs treated with AEB071 and medium isotope-labeled Tregs treated with DMSO. • Reverse experiment: medium isotope-labeled Tregs treated with AEB071 and heavy isotope-labeled Tregs treated with DMSO.
After processing the raw spectra with Max Quant software, the positively identified phosphopeptides were analyzed using Persus software. Contaminating peptides and reverse database hits were filtered out and the peptide intensity values and normalized H/M ratios were log 2 transformed. The significances of the individual H/M ratios calculated using the Significance B test with a false discovery rate of 0.05 for the forward and reverse experiment separately.
Relying only on the Sig B test, the overlap between the two data sets was low with only 15% overlap. In order to improve the overlap between the two data sets, the data was filtered based on fold change (<1.5), consistency of ratios, phospho site localization probability (<75%), and the MaxQuant score (<75). By filtering the results, the overlap improved to 60%.

PKC-θ/vimentin = molecular target: T1, PKC-θ/vimentin (Mus musculus, UniProt Q02111); experiment: confocal microscopy of PKC-θ and vimentin staining in activated Tregs; format: cell-based
T1 construct: endogenous in cells
Protocol: FIG. 8A are photographs of the results of experiments in which Tregs were pre-treated with DMSO (control), AEB071, or vimentin siRNA, then activated. PKC-θ and vimentin staining were analyzed by confocal microscopy.
Since PKC-θ localization and function appear to be linked, experiments were performed to understand whether PKC-θ inhibition modulated PKC-θ localization. Consistent with previous work, PKC-θ accumulated at the distal pole of control Tregs after 5 minutes of anti-CD3/CD28 mAb activation (FIG. 8A, top).

[5] = 10 μM AEB071 30 minutes vs DMSO, activated overnight with anti-CD3/28 and IL-2
[6] = PKC-θ inhibition (AEB071), activated Tregs

T1 sequence (Q02111 whole entry): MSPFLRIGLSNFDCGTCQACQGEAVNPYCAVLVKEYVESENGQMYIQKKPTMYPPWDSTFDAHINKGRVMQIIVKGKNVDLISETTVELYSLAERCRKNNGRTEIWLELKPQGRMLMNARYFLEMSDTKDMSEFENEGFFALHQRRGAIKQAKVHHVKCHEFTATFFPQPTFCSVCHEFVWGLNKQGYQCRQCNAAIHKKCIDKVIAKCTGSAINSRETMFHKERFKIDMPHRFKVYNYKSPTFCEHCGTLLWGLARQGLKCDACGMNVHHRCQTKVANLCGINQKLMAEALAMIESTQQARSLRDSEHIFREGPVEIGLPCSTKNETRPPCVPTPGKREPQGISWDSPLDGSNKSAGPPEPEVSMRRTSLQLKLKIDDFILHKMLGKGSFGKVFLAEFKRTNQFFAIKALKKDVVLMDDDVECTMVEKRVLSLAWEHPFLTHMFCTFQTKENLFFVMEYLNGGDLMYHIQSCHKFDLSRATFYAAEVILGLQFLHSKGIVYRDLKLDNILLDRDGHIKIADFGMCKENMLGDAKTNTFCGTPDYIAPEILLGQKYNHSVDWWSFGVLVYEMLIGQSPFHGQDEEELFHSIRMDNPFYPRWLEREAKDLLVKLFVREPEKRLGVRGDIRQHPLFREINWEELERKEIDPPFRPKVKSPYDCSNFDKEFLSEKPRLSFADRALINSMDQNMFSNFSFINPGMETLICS

Compound: CN1CCN(c2nc(C3=C(c4c[nH]c5ccccc45)C(=O)NC3=O)c3ccccc3n2)CC1 [AEB071]
- GVHD severity (acute GVHD; Tregs treated 30 minutes with 10 μM AEB071 vs DMSO-treated Tregs): significantly better
- recipient survival / GVHD mortality (acute GVHD; Tregs treated 30 minutes with 10 μM AEB071 vs DMSO-treated Tregs, p=0.0036): significantly increased recipient survival; also recorded: significantly better
- Tcon proliferation on D4 after transplant (acute GVHD; mice given AEB071 treated Tregs vs DMSO treated Tregs): significant reduction
- Tcon displacement from APCs (Tcon-APC interactions): significantly increased
- Tcon velocity (Tcon-APC interactions): significantly increased
- surface expression of Lymphocyte activation gene 3 (Lag3) (Tregs [1]; [5]): significantly increased; also recorded: augmented expression
- surface expression of Neuropilin-1 (Nrp1) (Tregs [1]; [5]): significantly increased; also recorded: augmented expression
- GI homing molecule expression (Tregs [1]; AEB071 treatment): did not increase
- expression of Lag3 (splenic Tregs): augmented expression
- expression of Nrp1 (splenic Tregs): augmented expression
- PKC-θ auto-phosphorylation at Ser676 ([2]; AEB071 treatment, stated by comparison with vimentin siRNA): significantly reduced
- Akt phosphorylation at serine 473 (mTORC2-specific site) [2, 6]: reduced
- Akt phosphorylation at threonine 308 (mTORC1-specific site) [2, 6]: unaltered
- phosphorylation of mTORC2 target FoxO3a [2, 6]: reduced phosphorylation
- baseline Treg oxygen consumption rate (OCR) (Tregs [3]; time 0-19 min): significantly increased
- maximal Treg OCR (Tregs [3]; time 53-70 min): significantly increased
- Treg function after AEB071-treatment of vimentin siRNA transfected Tregs (Tcon; AEB071 added to vimentin siRNA transfected Tregs): did not further augment
- effect of AEB071 treatment under antibody blockade of Nrp1 and Lag3 (Tcon; in vitro trans-well suppression assays): reduced the effect
- number of proteins with significant alterations in phosphorylation sites ([4]; AEB071 vs DMSO treated human Tregs): 72
- phosphorylation of adaptor molecule that links PKC-θ to vimentin (RLTPR) ([4]; AEB071 vs DMSO, b140: RLTPR serine 1226, PKC-theta consensus site): reduced phosphorylation
- interaction / overlap between vimentin and PKC-θ (PKC-θ/vimentin; AEB071-pre-treated Tregs after activation vs control): reduced the interaction
- PKC-θ localization (PKC-θ/vimentin; AEB071-pre-treated Tregs after anti-CD3/CD28 activation vs control): dispersed throughout the cell
